The term IC50 denotes the point on the concentration scale where inhibition reaches its midpoint.

This assay has as its target T1, human HSL (Homo sapiens, UniProt Q05469).
T1 construct: generate a full length human HSL ORF with a 3′-His6 tag; made in house; host or cells: High 5 insect cells (baculovirus, pFast-BAC)
T1 sequence (Q05469 1-1076): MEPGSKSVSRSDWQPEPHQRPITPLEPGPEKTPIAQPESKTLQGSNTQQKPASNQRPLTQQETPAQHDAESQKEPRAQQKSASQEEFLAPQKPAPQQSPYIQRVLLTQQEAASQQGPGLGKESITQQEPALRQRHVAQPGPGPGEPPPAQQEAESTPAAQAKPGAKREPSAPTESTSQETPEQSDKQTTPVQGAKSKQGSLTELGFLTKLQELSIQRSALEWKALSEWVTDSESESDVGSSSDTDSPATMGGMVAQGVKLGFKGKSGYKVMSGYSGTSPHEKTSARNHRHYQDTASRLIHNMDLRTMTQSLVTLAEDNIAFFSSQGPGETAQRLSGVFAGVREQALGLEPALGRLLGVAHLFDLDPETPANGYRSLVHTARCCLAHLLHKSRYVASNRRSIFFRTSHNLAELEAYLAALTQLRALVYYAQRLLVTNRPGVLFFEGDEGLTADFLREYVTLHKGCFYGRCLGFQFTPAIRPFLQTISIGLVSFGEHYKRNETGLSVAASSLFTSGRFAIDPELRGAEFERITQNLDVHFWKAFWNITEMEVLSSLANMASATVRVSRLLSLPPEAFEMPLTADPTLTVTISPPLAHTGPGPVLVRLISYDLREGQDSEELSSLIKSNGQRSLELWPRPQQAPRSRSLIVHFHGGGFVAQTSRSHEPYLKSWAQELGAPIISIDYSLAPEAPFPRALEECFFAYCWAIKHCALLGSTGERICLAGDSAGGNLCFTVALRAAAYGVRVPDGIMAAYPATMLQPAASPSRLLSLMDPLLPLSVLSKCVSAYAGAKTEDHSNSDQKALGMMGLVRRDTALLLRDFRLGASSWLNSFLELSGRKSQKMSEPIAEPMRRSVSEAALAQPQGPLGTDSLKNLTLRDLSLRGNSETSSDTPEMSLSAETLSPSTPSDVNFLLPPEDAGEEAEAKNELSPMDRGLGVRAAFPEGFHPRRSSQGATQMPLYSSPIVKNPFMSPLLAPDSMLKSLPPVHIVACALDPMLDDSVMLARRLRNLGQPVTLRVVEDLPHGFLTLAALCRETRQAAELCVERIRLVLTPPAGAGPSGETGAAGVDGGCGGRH
In words: Human Hormone-Sensitive Lipase (HSL) enzyme inhibition assay (colorimetric, DMPT substrate). In kind it is biochemical. Particulars: human full length HSL-His6, 2,3-dimercapto-1-propanol tributyrate substrate, 37° C., 20 minutes; read-out: HSL hum IC50. As for the experimental part:
Production of Human full length Hormone Sensitive Lipase-His^6: • 1) Cloning: cDNA was prepared from commercial human brain polyA+ RNA and used as a template in overlapping PCR to generate a full length human HSL ORF with a 3′-His6 tag. This full length insert was cloned into the pFast-BAC vector and the DNA-sequence of several single clones was verified. DNA from a correct full length clone with the 3′His6 tag was used to transform the E. coli strain DH10BAC. Resulting bacmid DNA was used to generate a titered baculovirus stock for protein generation. The sequence of the encoded HSL conforms to Swissprot entry Q05469, with the additional C-terminal His6-tag. • 2) Protein purification: Culture: 5.5 L, High 5 cells expressing human full length HSL-His^6, 48 hr., containing 25 μM E-64. Cell count: […], 90% viable. Cells were thawed. On ice, cells were suspended in Base Buffer containing 10% glycerol, 25 mM Tris-Cl, 300 mM NaCl, 10 mM imidazole, 10 mM 2-mercaptoethanol, 2 μg pepstatin/ml, 2 μg leupeptin/ml, 2 μg antipain/ml, pH 8.0 at 4° C. in a final volume of 475 ml with 3.75×10^7 cells/ml. […] was done at 3×30 sec., Lubrol PX was added to 0.2% final concentration followed by stirring for 15 min at 4° C. and centrifugation at 25 k×g, 60 min, 4° C. Soluble proteins were mixed with 60 ml of pre-washed and equilibrated Ni-NTA Agarose (Qiagen 30210) followed by tumbling end-over-end, 45 min., 4° C., centrifugation 1000 rpm 5 min and letting resin settle […]. Supernatant was removed, the resin washed in the centrifuge vessel using 5 volumes of Base Buffer containing 0.2% Lubrol PX. Centrifugation was done again, then the supernatant discarded. The resin was poured onto a 0.8 μm membrane in a disposable filter unit (Nalge 450-0080), and washed with 5 volumes of Base Buffer containing 0.2% Lubrol PX. It was then washed with 30 volumes of Base Buffer containing 60 mM imidazole pH 7.5 at 4° C. The protein was eluated with 5 volumes of 25 mM Tris-Cl, 300 mM NaCl, 200 mM imidazole, 10 mM 2-mercaptoethanol, pH 7.5 at 4° C. by tumbling resin with buffer end-over-end, 30 min., 4° C. The resin was captured on a 0.2 μm membrane disposable filter unit (Millipore SCGP U02 RE) and the eluate collected in the reservoir. The eluate was concentrated using a 30 k MWCO centrifugal filter device (Sartorius Vivascience Vivacell 100, VC1022), to 20 ml. It was then dialyzed overnight at 4° C., two times against 2 L of 10% glycerol, 25 mM Tris-Cl, 300 mM NaCl, 0.2 mM EDTA, 0.2 mM DTT, pH 7.5 at 4° C. The protein was filtered using a 0.22 μm disposable filter unit (Millipore SCGP00525). The protein concentration was calculated from absorbance at 280 nm, using 280=0.67 cm^−1 mg-1. Yield was 235 mg, total. The protein was stored at −80° C.
Human Hormone-Sensitive Lipase (HSL) Enzyme Inhibition Assay: • HSL enzyme activity was measured by a colorimetric assay using 2,3-dimercapto-1-propanol tributyrate (Aldrich, St. Louis, Mo.) as a substrate. Typically, 1.5 mM 2,3-dimercapto-1-propanol tributyrate (DMPT) in 100 mM MOPS, pH 7.2, 0.2 mg/ml fatty acid-free BSA was prepared by sonication at 4° C. to homogenous suspension. Test compounds (2 mM stock in DMSO) were diluted 3 fold in series in DMSO. Compound solutions were diluted 24 fold in 1.5 mM DMPT containing solution and 18 μl per well was added to 384-well microplates (Corning Costar). Twelve microliters per well of human HSL (15 μg/ml) was added and the reaction mixture was incubated at 37° C. for 20 minutes. Six microliters of 12 mM dithio-bis-(2-nitrobenzoic acid) (DTNB) in DMSO plus 1.2% SDS and 0.6% Triton X-100 were added and the mixture was incubated at room temperature for 15 minutes. Product production was monitored by reading absorbance at 405 nm on an Envision Reader (PerkinElmer Life and Analytical Sciences, Shelton, Conn.).

The structures appear in SMILES notation.

In the case of `CC(C)Oc1ccc(N2CC[C@]3(CC[C@@](O)(CN4CC[C@@H](O)C4=O)CC3)C2=O)cc1` [Example 6, (5α,8α)-8-Hydroxy-8-(((R)-3-hydroxy-2-oxopyrrolidin-1-yl)methyl)-2-(4-isopropoxyphenyl)-2-azaspiro[4.5]decan-1-one], the IC50 was found to be 60 nM.
Take `O=C1CCC2(CC2)N1C[C@]1(O)CC[C@]2(CCN(c3ccc([C@@H](O)C(F)(F)F)cc3)C2=O)CC1` [Example 17, (5α,8α)-8-Hydroxy-8-(5-oxo-4-aza-spiro[2.4]hept-4-ylmethyl)-2-[4-((R)-2,2,2-trifluoro-1-hydroxy-ethyl)-phenyl]-2-aza-spiro[4.5]decan-1-one]: the IC50 was determined as 40 nM.
Regarding `CC(C)Oc1ccc(N2CC[C@]3(CC[C@@](O)(CN4CCN(C)C4=O)CC3)C2=O)cn1` [Example 7, (5α,8α)-8-Hydroxy-2-(6-isopropoxy-pyridin-3-yl)-8-(3-methyl-2-oxo-imidazolidin-1-ylmethyl)-2-aza-spiro[4.5]decan-1-one], the half-maximal inhibitory concentration (IC50) was 138 nM.
For `CC(C)Oc1ccc(N2CC[C@]3(CC[C@@](O)(CN4CCN(C)C4=O)CC3)C2=O)cc1` [Example 3, (5α,8α)-8-hydroxy-2-(4-isopropoxyphenyl)-8-((3-methyl-2-oxoimidazolidin-1-yl)methyl)-2-azaspiro[4.5]decan-1-one], the IC50 was 23.9 nM.
As for `C[C@@H](Oc1ccc(N2CC[C@]3(CC[C@@](O)(CN4C(=O)CCC45CC5)CC3)C2=O)cc1)C(F)(F)F` [Example 11, (5α,8α)-8-hydroxy-8-((5-oxo-4-azaspiro[2.4]heptan-4-yl)methyl)-2-(4-((R)-1,1,1-trifluoropropan-2-yloxy)phenyl)-2-azaspiro[4.5]decan-1-one], the figure is 7.1 nM; as for `CC1(C)CCC(=O)N1C[C@]1(O)CC[C@]2(CCN(c3ccc(C(F)(F)F)cc3)C2=O)CC1` [Example 1, (5α,8α)-8-((2,2-dimethyl-5-oxopyrrolidin-1-yl)methyl)-8-hydroxy-2-(4-(trifluoromethyl)phenyl)-2-azaspiro[4.5]decan-1-one], 14.9 nM.
Take `O=C1CCC2(CC2)N1C[C@]1(O)CC[C@]2(CCN(c3ccc(OCC(F)(F)F)cc3)C2=O)CC1` [Example 13, (5α,8α)-8-Hydroxy-8-(5-oxo-4-aza-spiro[2.4]hept-4-ylmethyl)-2-[4-(2,2,2-trifluoro-ethoxy)-phenyl]-2-aza-spiro[4.5]decan-1-one]: the IC50 worked out at 7.5 nM.
On to `O=C1OCC2(CC2)N1C[C@]1(O)CC[C@]2(CCN(c3ccc(OCC(F)(F)F)cc3)C2=O)CC1` [Example 15, (5α,8α)-8-Hydroxy-8-(5-oxo-6-oxa-4-aza-spiro[2.4]hept-4-ylmethyl)-2-[4-(2,2,2-trifluoro-ethoxy)-phenyl]-2-aza-spiro[4.5]decan-1-one], for which the IC50 turned out to be 990 nM.
As for `CC(C)Oc1ccc(N2CC[C@]3(CC[C@@](O)(CN4CCNC4=O)CC3)C2=O)cn1` [Example 8, (5α,8α)-8-hydroxy-2-(6-isopropoxypyridin-3-yl)-8-((2-oxoimidazolidin-1-yl)methyl)-2-azaspiro[4.5]decan-1-one], the figure is 300 nM; as for `CC(C)Oc1ccc(N2CC[C@]3(CC[C@@](O)(CN4CCOC4=O)CC3)C2=O)cc1` [Example 5, 3-(((5α,8α)-8-Hydroxy-2-(4-isopropoxyphenyl)-1-oxo-2-azaspiro[4.5]decan-8-yl)methyl)oxazolidin-2-one], 5.9 nM.
The value for `CN1CCN(C[C@]2(O)CC[C@]3(CCN(c4ccc([C@@H](O)C(F)(F)F)cc4)C3=O)CC2)C1=O` [Example 10, (5α,8α)-8-Hydroxy-8-(3-methyl-2-oxo-imidazolidin-1-ylmethyl)-2-[4-((R)-2,2,2-trifluoro-1-hydroxy-ethyl)-phenyl]-2-aza-spiro[4.5]decan-1-one] was 136 nM.
Regarding `C[C@H](Oc1ccc(N2CC[C@]3(CC[C@@](O)(CN4C(=O)CCC45CC5)CC3)C2=O)cn1)C(F)(F)F` [Example 12, (5α,8α)-8-hydroxy-8-((5-oxo-4-azaspiro[2.4]heptan-4-yl)methyl)-2-(6-((S)-1,1,1-trifluoropropan-2-yloxy)pyridin-3-yl)-2-azaspiro[4.5]decan-1-one], the IC50 stood at 9.7 nM.
Regarding `CC1(C)CCC(=O)N1C[C@]1(O)CC[C@]2(CCN(c3ccc([C@@H](O)C(F)(F)F)cc3)C2=O)CC1` [Example 9, (5α,8α)-8-(2,2-Dimethyl-5-oxo-pyrrolidin-1-ylmethyl)-8-hydroxy-2-[4-((R)-2,2,2-trifluoro-1-hydroxy-ethyl)-phenyl]-2-aza-spiro[4.5]decan-1-one], the IC50 is 14.6 nM.
The value for `CC(C)Oc1ccc(N2CC[C@]3(CC[C@@](O)(CN4C(=O)CCC45CC5)CC3)C2=O)cc1` [Example 4, (5α,8α)-8-Hydroxy-2-(4-isopropoxy-phenyl)-8-(5-oxo-4-aza-spiro[2.4]hept-4-ylmethyl)-2-aza-spiro[4.5]decan-1-one] was 11.4 nM.
The value for `CC(C)Oc1ccc(N2CC[C@]3(CC[C@@](O)(CN4C(=O)CCC4(C)C)CC3)C2=O)cc1` [Example 2, (5α,8α)-8-((2,2-dimethyl-5-oxopyrrolidin-1-yl)methyl)-8-hydroxy-2-(4-isopropoxyphenyl)-2-azaspiro[4.5]decan-1-one] was 12.5 nM; that for `O=C1OCCN1C[C@]1(O)CC[C@]2(CCN(c3ccc(OCC(F)(F)F)cc3)C2=O)CC1` [Example 16, (5α,8α)-8-Hydroxy-8-(2-oxo-oxazolidin-3-ylmethyl)-2-[4-(2,2,2-trifluoro-ethoxy)-phenyl]-2-aza-spiro[4.5]decan-1-one] was 150 nM.
